# According to PubChem BioAssay AID2060912 (Molecular Pharmacology Branch, DTP, NCI, 2025):
# Tested on: HUVEC/MSC spheroids viability
# Assay: Human HUVEC/MSC cell line growth inhibition [KRAS2];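 on viability, T/C: percent of DMSO vehicle control luminescence so 100% = untreated viability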
# Conditions: for IC50: curve of first compound; for viability, T/C: stronger effect = lower value
# Outline: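 Growth/viability of tumour-free HUVEC–hMSC spheroids was measured after exposure to targeted small molecules and KRAS inhibitors, singly or in combination. Agents were diluted in half-log steps from Cmax-based top concentrations, capped at 10 microM without known Cmax.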
compound,measurement,setting,value
CC1COCCN1c1cc(-c2ccnn2C)c2ccnc(-c3ccn[nH]3)c2n1 (configuration not stated) + C=CC(=O)N1CCN(c2nc(=O)n(-c3c(C)ccnc3C(C)C)c3nc(-c4c(O)cccc4F)c(F)cc23)C(C)C1,IC50,second compound 0.0316 µM,2.52 µM
same,IC50,second compound 0.1 µM,> 3 µM
same,IC50,second compound 0.316 µM,2.75 µM
same,IC50,second compound 1 µM,> 3 µM
same,IC50,second compound 3.16 µM,> 3 µM
same,IC50,second compound 10 µM,> 3 µM
same,"viability, T/C","second compound 0.0316 µM, first compound 0.00949 µM",82.3%
same,"viability, T/C","second compound 0.0316 µM, first compound 0.03 µM",97.5%
same,"viability, T/C","second compound 0.0316 µM, first compound 0.0949 µM",75%
same,"viability, T/C","second compound 0.0316 µM, first compound 0.3 µM",73.2%
same,"viability, T/C","second compound 0.0316 µM, first compound 0.949 µM",64.6%
same,"viability, T/C","second compound 0.0316 µM, first compound 3 µM",47.4%
same,"viability, T/C","second compound 0.1 µM, first compound 0.00949 µM",113%
same,"viability, T/C","second compound 0.1 µM, first compound 0.03 µM",83.7%
same,"viability, T/C","second compound 0.1 µM, first compound 0.0949 µM",96.6%
same,"viability, T/C","second compound 0.1 µM, first compound 0.3 µM",83.2%
same,"viability, T/C","second compound 0.1 µM, first compound 0.949 µM",50.7%
same,"viability, T/C","second compound 0.1 µM, first compound 3 µM",51.8%
same,"viability, T/C","second compound 0.316 µM, first compound 0.00949 µM",114%
same,"viability, T/C","second compound 0.316 µM, first compound 0.03 µM",105%
same,"viability, T/C","second compound 0.316 µM, first compound 0.0949 µM",94.2%
same,"viability, T/C","second compound 0.316 µM, first compound 0.3 µM",75.5%
same,"viability, T/C","second compound 0.316 µM, first compound 0.949 µM",63.3%
same,"viability, T/C","second compound 0.316 µM, first compound 3 µM",48.6%
same,"viability, T/C","second compound 1 µM, first compound 0.00949 µM",108%
same,"viability, T/C","second compound 1 µM, first compound 0.03 µM",119%
same,"viability, T/C","second compound 1 µM, first compound 0.0949 µM",96.2%
same,"viability, T/C","second compound 1 µM, first compound 0.3 µM",76.3%
same,"viability, T/C","second compound 1 µM, first compound 0.949 µM",76%
same,"viability, T/C","second compound 1 µM, first compound 3 µM",54.6%
same,"viability, T/C","second compound 3.16 µM, first compound 0.00949 µM",103%
same,"viability, T/C","second compound 3.16 µM, first compound 0.03 µM",117%
same,"viability, T/C","second compound 3.16 µM, first compound 0.0949 µM",101%
same,"viability, T/C","second compound 3.16 µM, first compound 0.3 µM",88.5%
same,"viability, T/C","second compound 3.16 µM, first compound 0.949 µM",73.2%
same,"viability, T/C","second compound 3.16 µM, first compound 3 µM",74.8%
same,"viability, T/C","second compound 10 µM, first compound 0.00949 µM",121%
same,"viability, T/C","second compound 10 µM, first compound 0.03 µM",123%
same,"viability, T/C","second compound 10 µM, first compound 0.0949 µM",115%
same,"viability, T/C","second compound 10 µM, first compound 0.3 µM",102%
same,"viability, T/C","second compound 10 µM, first compound 0.949 µM",72%
same,"viability, T/C","second compound 10 µM, first compound 3 µM",77.1%
